Assay results published in ChEMBL document CHEMBL5335862, “The Science and Art of Structure-Based Virtual Screening” (ACS Med Chem Lett, 2024).

Biological target: CREB-binding protein (Homo sapiens, UniProt Q92793)
Experiment: Inhibition of CREBBP (unknown origin) by TR-FRET assay

CREB-binding protein, sequence (Q92793 whole entry): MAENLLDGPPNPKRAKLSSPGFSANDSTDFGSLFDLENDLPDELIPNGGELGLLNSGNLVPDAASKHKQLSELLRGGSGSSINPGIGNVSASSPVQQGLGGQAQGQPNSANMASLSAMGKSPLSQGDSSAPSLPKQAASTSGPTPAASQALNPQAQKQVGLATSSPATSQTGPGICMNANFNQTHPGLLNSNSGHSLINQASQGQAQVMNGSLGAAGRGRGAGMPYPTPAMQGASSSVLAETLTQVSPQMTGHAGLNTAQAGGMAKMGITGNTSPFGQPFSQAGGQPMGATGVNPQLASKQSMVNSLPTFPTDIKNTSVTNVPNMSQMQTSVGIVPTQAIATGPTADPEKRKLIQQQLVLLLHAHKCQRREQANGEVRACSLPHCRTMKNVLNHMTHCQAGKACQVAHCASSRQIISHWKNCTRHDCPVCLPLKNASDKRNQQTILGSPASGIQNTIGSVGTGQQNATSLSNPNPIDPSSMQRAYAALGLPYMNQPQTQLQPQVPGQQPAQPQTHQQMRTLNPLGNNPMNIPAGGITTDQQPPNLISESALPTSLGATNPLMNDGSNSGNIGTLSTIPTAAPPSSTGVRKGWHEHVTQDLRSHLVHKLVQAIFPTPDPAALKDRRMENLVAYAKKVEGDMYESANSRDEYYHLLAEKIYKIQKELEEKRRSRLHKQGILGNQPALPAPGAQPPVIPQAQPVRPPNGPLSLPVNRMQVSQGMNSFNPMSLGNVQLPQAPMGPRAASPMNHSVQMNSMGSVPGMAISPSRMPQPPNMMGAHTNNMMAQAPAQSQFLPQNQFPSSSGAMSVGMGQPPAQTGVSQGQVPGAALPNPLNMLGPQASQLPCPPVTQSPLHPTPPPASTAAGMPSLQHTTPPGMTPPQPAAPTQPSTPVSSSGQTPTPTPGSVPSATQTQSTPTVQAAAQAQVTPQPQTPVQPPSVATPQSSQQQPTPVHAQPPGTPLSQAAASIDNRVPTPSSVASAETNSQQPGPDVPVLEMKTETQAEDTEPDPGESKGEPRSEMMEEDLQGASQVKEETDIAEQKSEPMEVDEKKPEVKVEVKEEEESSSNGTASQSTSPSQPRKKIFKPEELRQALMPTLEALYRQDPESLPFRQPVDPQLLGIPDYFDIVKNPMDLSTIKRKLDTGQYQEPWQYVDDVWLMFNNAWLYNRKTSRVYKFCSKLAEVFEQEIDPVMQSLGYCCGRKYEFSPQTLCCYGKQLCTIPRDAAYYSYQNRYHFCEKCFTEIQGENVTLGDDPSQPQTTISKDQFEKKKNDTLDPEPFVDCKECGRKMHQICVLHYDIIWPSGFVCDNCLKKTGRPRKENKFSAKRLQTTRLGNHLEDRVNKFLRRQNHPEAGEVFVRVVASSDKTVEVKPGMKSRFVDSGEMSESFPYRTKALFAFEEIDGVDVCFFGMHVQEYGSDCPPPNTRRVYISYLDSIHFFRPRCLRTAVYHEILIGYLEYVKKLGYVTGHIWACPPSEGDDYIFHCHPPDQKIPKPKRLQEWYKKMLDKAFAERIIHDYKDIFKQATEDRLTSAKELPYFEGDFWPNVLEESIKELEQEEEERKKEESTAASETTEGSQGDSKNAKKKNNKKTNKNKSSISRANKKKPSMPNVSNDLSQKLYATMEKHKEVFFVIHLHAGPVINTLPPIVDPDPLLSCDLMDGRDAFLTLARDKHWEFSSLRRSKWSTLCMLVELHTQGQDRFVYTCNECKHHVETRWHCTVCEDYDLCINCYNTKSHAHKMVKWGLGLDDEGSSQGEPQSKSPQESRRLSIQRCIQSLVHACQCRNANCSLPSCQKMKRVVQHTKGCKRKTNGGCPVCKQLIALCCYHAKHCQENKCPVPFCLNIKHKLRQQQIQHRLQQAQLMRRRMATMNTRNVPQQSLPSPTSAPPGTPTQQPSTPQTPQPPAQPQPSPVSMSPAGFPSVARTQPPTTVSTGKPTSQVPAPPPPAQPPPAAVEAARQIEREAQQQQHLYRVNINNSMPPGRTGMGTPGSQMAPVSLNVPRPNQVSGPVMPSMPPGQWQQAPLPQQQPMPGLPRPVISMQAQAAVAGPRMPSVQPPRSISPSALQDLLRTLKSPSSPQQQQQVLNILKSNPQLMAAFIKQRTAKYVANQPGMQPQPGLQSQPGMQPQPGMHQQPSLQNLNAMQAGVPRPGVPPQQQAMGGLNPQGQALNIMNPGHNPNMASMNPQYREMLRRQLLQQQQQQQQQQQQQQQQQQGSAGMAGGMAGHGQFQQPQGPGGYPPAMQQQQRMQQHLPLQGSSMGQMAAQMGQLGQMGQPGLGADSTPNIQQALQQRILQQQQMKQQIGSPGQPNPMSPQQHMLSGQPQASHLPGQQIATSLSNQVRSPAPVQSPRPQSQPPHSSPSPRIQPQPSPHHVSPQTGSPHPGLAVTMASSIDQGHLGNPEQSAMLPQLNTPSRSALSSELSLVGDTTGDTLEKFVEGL

| Compound | IC50 |
| --- | --- |
| Cc1cc2c(C(N)=O)c(N)n(-c3c(C)ccc(O)c3C)c2nc1C [LUNRESERTIB] | 0.3 µM |
| Cc1ccc(O)cc1-n1c(N)c(C(N)=O)c2nc3ccccc3nc21 | 0.3 µM |
